Experimental data taken from patent publication US10940179B2, “Therapeutic compositions for the treatment of dry eye disease” (SCHEPENS EYE RESEARCH INSTITUTE, priority 2010, dated 2021).

Tests used:
DED mice = assay: Corneal fluorescein staining / clinical signs in experimental dry eye murine model; assay type: in vivo, mouse; settings: for Clinical signs of DED / disease severity: anti-VEGF-C-treated vs untreated (saline) group, daily i.p.
Source text: (§1) Eight to ten week-old female C57BLI6 mice (Charles River Laboratory, Wilmington, Mass.) were used in accordance with the standards in the ARVO Statement for the Use of Animals in Ophthalmic and Vision Research. The research protocol was approved by the Schepens Eye Research Institute Animal Care and Use Committee. Dry eye was induced in murine eyes using a Controlled Environment Chamber (CEC) which exposes the mice to high-flow desiccated air. To achieve maximum ocular surface dryness, the conditions in CEC were supplemented with topical application of 1% atropine sulfate (Falcon Pharma, Fort Worth, Tex.) twice for the first 48 hours and subcutaneous injections of 0.1 ml of 5 mg/ml of scopolamine hydrobromide (Sigma-Aldrich, St. Louis, Mo.) three times a day, for the entire duration of the experiment.
(§2) Anti-VEGF-C antibodies (VGX-100; Vegenics Limited, Australia) were administered intraperitonealy daily from day 1 to day 10 to DED mice. Mice were assessed clinically using corneal fluorescent staining. Tissues from cornea, conjunctiva and draining lymph nodes were examined for cellular and molecular pathological changes.
Corneal lymphatics play an important role in mediating the corneal inflammation in dry eyes. Experiments: To validate this, inhibition of corneal neolymphangiogenesis was performed in a well characterized mouse model of DED described above. To see if inhibition of corneal neolymphangiogenesis could decrease ocular surface inflammation, anti-VEGF-C antibodies were administered i.p. daily from day −1 to day 10 to DED mice and assessed clinically using corneal fluorescein staining.
Methods (as described previously): Induction of Dry Eye Disease. Experimental Dry Eye Murine Model. Assessment of Corneal Surface: Corneal Fluorescein Staining. Immunohistochemistry: Monocyte/macrophage marker—CD11b; Pan-endothelial marker—CD31; Lymphatic endothelial marker—LYVE-1; Blood vessels: CD31^hi/LYVE-1; Lymph vessels: CD31^lo/LYVE-l^hi. Morphometry of Lymphangiogenesis: Automated image analysis program written using Mat lab. Lymphatic Area (LA)—total surface area of the lymphatic vessels when projected into the plane of the image. Lymphatic Caliber (LC)—measure of the diameters of the lymphatic vessels.
Anti-VEGF-C antibody and treatment regimen. Experimental design: Three groups: Normal, DE group treated with IP normal Saline (Untreated) and DE group treated with anti-VEGF-C antibody (VGX-100; a gift from Vegenics, Australia). Daily IP application of anti-VEGF-C antibody/Normal saline from day −1 to day 13. Dose: […] (20 mg/kg) in […] of Normal Saline.

corneal lymphatics = assay: Corneal lymphangiogenesis in DED mice (CD31/LYVE-1 staining, morphometry); design: species or system mouse; settings: in vivo blockade of VEGF-C
Source text: (§3) Eight to ten week-old female C57BLI6 mice (Charles River Laboratory, Wilmington, Mass.) were used in accordance with the standards in the ARVO Statement for the Use of Animals in Ophthalmic and Vision Research. The research protocol was approved by the Schepens Eye Research Institute Animal Care and Use Committee. Dry eye was induced in murine eyes using a Controlled Environment Chamber (CEC) which exposes the mice to high-flow desiccated air. […]
(§4) Freshly excised corneas were washed in PBS, fixed in acetone for 15 minutes and then double stained with CD31 and LYVE-1 as described previously. To analyze infiltration of CD11b^+/LYVE-1 cells, corneas from three mice from each group were taken and cells were counted in 5-6 areas in the periphery ([…] area from the limbus) of each cornea in a masked fashion, using epifluorescence microscope (model E800; Nikon, Melville, N.Y.) at 40× magnification. The mean number of cells was obtained by averaging the total number of cells in all the areas studied and the result was expressed as the number of positive cells per mm^2.
Morphology of lymphatics was analyzed using an automated image analysis program written with Matlab (The Mathworks, Inc., Natick, Mass.). […] The resultant isolated lymphatic vessels were analyzed morphologically using two metrices, Lymphatic Area (LA) and Lymphatic Caliber (LC). […]

CD11b+ cells = assay: Enumeration of CD11b+ cells in DED corneas (immunohistochemistry); assay type: in vivo, mouse
Source text: as §3, §4
(§5) Anti-VEGF-C antibodies (VGX-100; Vegenics Limited, Australia) were administered intraperitonealy daily from day 1 to day 10 to DED mice. Mice were assessed clinically using corneal fluorescent staining. […]

[1] = system: IL-17 (Th17 cells) and IFN-γ (Th1 cells); assay: Real-time PCR of inflammatory cytokines in draining lymph nodes of DED mice; assay type: in vivo, mouse; settings: treated vs untreated DED mice
Source text: as §1
Five mice (10 eyes) were included in each group. […]
as §5
(§6) Real time PCR was performed to quantify expression of different VEGF growth factors (VEGF-A, VEGF-C, VEGF-D) and their receptors (VEGFR-2, VEGFR-3) in the cornea at days 6, 10 and 14 (FIG. 8) and to determine the levels of proinflammatory cytokines.

VEGF-C, -D, R3 = assay: Real-time PCR of pro-lymphangiogenic growth factors and receptors in DE corneas; assay type: in vivo, mouse; settings: DED mice, VEGF-C blockade
Source text: as §1
Five mice (10 eyes) were included in each group. Two corneas were pooled together to equal as one sample and stored at −80° C. in Trizol (Invitrogen, Carlsbad, Calif.; catalog No. 15596026) until future use. Total RNA was isolated from these corneas using the RNeasy microkit (Qiagen, Valencia, Calif.; catalog No. 74004). Equal amounts of RNA were used to synthesize cDNA using SuperScript™ III Reverse Trancriptase (Invitrogen, Carlsbad, Calif.; catalog No. 18080) according to the manufacturer's recommendations. Real-Time PCR was performed using FAM-MGB dye labeled predesigned primers (Applied Biosystem, Foster City, Calif.) for GAPDH (assay ID.Mm999999 15_gl), VEGF-A (Mm00437304_ml), VEGF-C (Mrn00437313_ml), VEGF-D (Mm00438965_ml), VEGFR-2 (Mm00440099_ml), VEGFR-3 (Mm00433337_ml). 2.5 μl of cDNA was loaded in each well and assays were performed in duplicate. The GAPDH gene was used as the endogenous reference for each reaction. […]
as §6

[2] = system: IL-1α, IL-1β, IL-6, IL-17; assay: Real-time PCR of proinflammatory cytokines in conjunctiva of DED mice; assay type: in vivo, mouse
Source text: as §1
Five mice (10 eyes) were included in each group. Two corneas were pooled together to equal as one sample and stored at −80° C. in Trizol (Invitrogen, Carlsbad, Calif.; catalog No. 15596026) until future use. Total RNA was isolated from these corneas using the RNeasy microkit (Qiagen, Valencia, Calif.; catalog No. 74004). Equal amounts of RNA were used to synthesize cDNA using SuperScript™ III Reverse Trancriptase (Invitrogen, Carlsbad, Calif.; catalog No. 18080) according to the manufacturer's recommendations. Real-Time PCR was performed using FAM-MGB dye labeled predesigned primers (Applied Biosystem, Foster City, Calif.) for GAPDH (assay ID.Mm999999 15_gl), VEGF-A (Mm00437304_ml), VEGF-C (Mrn00437313_ml), VEGF-D (Mm00438965_ml), VEGFR-2 (Mm00440099_ml), VEGFR-3 (Mm00433337_ml). 2.5 μl of cDNA was loaded in each well and assays were performed in duplicate. The GAPDH gene was used as the endogenous reference for each reaction. The results were normalized by the cycle threshold (CT) of GAPDH and the relative mRNA level in the normal mice was used as the normalized control.
as §2, §6

[3] = DED mice, VEGF-C blockade (summary)

VGX-100: human anti-VEGF-C monoclonal antibody produced by hybridoma ATCC PTA-4095; heavy/light chains SEQ ID NO: 34/35; from Vegenics
Corneal epitheliopathy (DED mice; VEGF-C blockade): decrease
Clinical signs of DED / disease severity (DED mice): ameliorates clinical signs of DED
Clinical signs of DED / disease severity (DED mice; listed as anti-VEGF-C): significant decrease in disease severity
Clinical signs of DED / disease severity (DED mice; listed as anti-VEGF-C Ab): ameliorates clinical signs of DED
Corneal fluorescein staining (CFS) score (DED mice; days 5, 9 and 13, vs untreated group, daily IP 400 µg (20 mg/kg) in 100 µl saline): significantly decreased
Corneal lymphangiogenesis / lymphatic growth (corneal lymphatics): suppresses corneallymphangiogenesis
Corneal lymphangiogenesis / lymphatic growth (corneal lymphatics; listed as anti-VEGF-C): suppression of lymphatic growth
Decrease of infiltration of CD11b+ cells in DED corneas (CD11b+ cells; DED corneas, day 14): 30%
Corneal infiltration of CD11b+ cells (CD11b+ cells; [3]): decrease
Induction of T-cell mediated autoimmune response in draining lymph nodes (IL-17, IFN-γ by real-time PCR) [1]: significantly decreased induction
Expression of VEGF-C in DE corneas (VEGF-C, -D, R3): decrease
Expression of VEGF-D in DE corneas (VEGF-C, -D, R3): decrease
Expression of VEGFR-3 (R3) in DE corneas (VEGF-C, -D, R3): decrease
mRNA expression levels of proinflammatory cytokines in the conjunctiva [2, 3]: decrease
IL-1α expression in conjunctiva (real-time PCR) ([2]; treated vs untreated DED mice): significantly decreased expression
IL-1β expression in conjunctiva (real-time PCR) ([2]; treated vs untreated DED mice): significantly decreased expression
IL-6 expression in conjunctiva (real-time PCR) ([2]; treated vs untreated DED mice): significantly decreased expression
IL-17 expression in conjunctiva (real-time PCR) ([2]; treated vs untreated DED mice): significantly decreased expression
